Patent publication US20240383922A1, “KRAS Modulating Compounds” (Gilead Sciences, Inc., priority 2023, published 2024)
Read-outs that look alike come from different tables or passages of the source.

Key:
[1] = target: GDP-loaded wild-type KRAS (WT) (Homo sapiens (Human), UniProt P01116); assay: KRAS (GDP) biochemical TR-FRET probe displacement assay, WT KRAS; assay type: binding; settings: 2 hours
Procedure: (§1) KRAS (GDP) Biochemical Assays:
(§2) Compounds were serially diluted (1:3) in DMSO. The LabCyte ECHO Acoustic dispenser was used to pre-spot the assay plates (384-well Non-Binding Surface plates, Corning, Catalog #3824) with 50 nL of compound. 5 μL of 2× enzyme concentration was added to the pre-spotted plates and incubated for 30 minutes before adding 5 μL of 2× concentration of Eu-streptavidin and Cy-5 labelled probe (10 μL final reaction volume). The plates were incubated at room temperature for 2 hours before measuring TR-FRET ratio (665 nm/615 nm) on the Envision multimode plate reader. The ratios were normalized to a positive (saturating concentration of known inhibitor) and negative (DMSO) control and plotted against the log of compound concentration.

GDP-loaded KRAS-G12C = GDP-loaded KRAS-G12C (Homo sapiens (Human), UniProt P01116, G12C); assay: KRAS (GDP) biochemical TR-FRET probe displacement assay, KRAS-G12C; assay type: binding; settings: 2 hours
Procedure: as §1, §2

GDP-loaded KRAS-G12V = GDP-loaded KRAS-G12V (Homo sapiens (Human), UniProt P01116, G12V); assay: KRAS (GDP) biochemical TR-FRET probe displacement assay, KRAS-G12V; assay type: binding; settings: 2 hours
Procedure: as §1, §2

GDP-loaded KRAS-G12D = GDP-loaded KRAS-G12D (Homo sapiens (Human), UniProt P01116, G12D); assay: KRAS (GDP) biochemical TR-FRET probe displacement assay, KRAS-G12D; assay type: binding; settings: 2 hours
Procedure: as §1, §2

[2] = system: cellular pERK in Kuramochi (WT KRAS) cell-line; assay: Cell based pERK assay (HTRF), Kuramochi; settings: Kuramochi (WT KRAS) cells, 2 hours incubation
Procedure: (§3) Compounds were tested in a 384-well assay format for their ability to inhibit cellular pERK in Kuramochi (WT KRAS), MIA-PaCa-2 (KRAS-G12C), ASPC-1 (KRAS G12D), and NCI-H441 (KRAS-G12V) cell-lines. Compounds were serially diluted (1:3) in DMSO. On day −1, 80 uL of cells were plated per well in the 384 well tissue-culture plates (Greiner: Cat #781080) to seed 5000 cells per wells of AsPC-1 or 7500 cells of MIA-PaCa-2, NCI-H441, and Kuramochi cell lines in RPMI (Corning: Cat #10-040-CM) with 10% fetal bovine serum (FBS) (HyClone: Cat #SH30071-03) and 1× penicillin-streptomycin-glutamate (PSG) (Corning: Cat #30-009-CI) for […] and Kuramochi cell lines and DMEM (Corning: Cat #15-018-CM) with […] and 1× PSG for MKA-PaCa-2 cell line. The plates were then incubated overnight at 37° C. and 5% CO2. On day 0, 400 nL of compound/well was added into the cell plates and mixed 5 times by pipetting using a Beckmann Biomek FX. The cell plates were then incubated for 2 hours at 37° C. and 5% CO2. HTRF Advanced Phospho-ERK1/2 ([…]) Detection Kits (PerkinElmer: Cat #64AERPEG) were used to prepare the lysis and detection solution according to manufacturer protocol. Following the 2 hour incubation, 70 μL of medium was aspirated from the plates and 10 uL of lysis and detection solution was added to the plates using a Biotek EL406 washer and dispenser. Plates were sealed and stored overnight at room temperature. HTRF ratio (665 nm/615 nm) was read by Envision multimode reader (PerkinElmer) the next day. The TR-FRET ratios were normalized to a positive (saturating concentration of known inhibitor) and negative (DMSO) control and plotted against the log of compound concentration. IC50 values were defined as the compound concentration that causes a […] in normalized signal and were calculated using a sigmoidal dose-response model to generate curve fits.

[3] = system: cellular pERK in MIA-PaCa-2 (KRAS-G12C) cell-line; assay: Cell based pERK assay (HTRF), MIA-PaCa-2; settings: MIA-PaCa-2 (KRAS-G12C) cells, 2 hours incubation, read-out: MIAPaCa2 pERK EC50
Procedure: as §3

[4] = system: cellular pERK in NCI-H441 (KRAS-G12V) cell-line; assay: Cell based pERK assay (HTRF), NCI-H441; settings: NCI-H441 (KRAS-G12V) cells, 2 hours incubation
Procedure: as §3

[5] = system: cellular pERK in ASPC-1 (KRAS G12D) cell-line; assay: Cell based pERK assay (HTRF), ASPC-1; settings: ASPC-1 (KRAS G12D) cells, 2 hours incubation
Procedure: as §3

Chain of GDP-loaded KRAS-G12C (P01116-2 other isoform, or with tags, fused parts or gaps G12C): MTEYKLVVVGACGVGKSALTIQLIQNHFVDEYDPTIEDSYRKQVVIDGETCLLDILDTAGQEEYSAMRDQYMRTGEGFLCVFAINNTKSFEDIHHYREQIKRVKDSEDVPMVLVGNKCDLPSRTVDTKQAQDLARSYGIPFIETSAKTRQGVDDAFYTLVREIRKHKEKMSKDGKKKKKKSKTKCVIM
Chain of GDP-loaded KRAS-G12D (P01116-2 other isoform, or with tags, fused parts or gaps G12D): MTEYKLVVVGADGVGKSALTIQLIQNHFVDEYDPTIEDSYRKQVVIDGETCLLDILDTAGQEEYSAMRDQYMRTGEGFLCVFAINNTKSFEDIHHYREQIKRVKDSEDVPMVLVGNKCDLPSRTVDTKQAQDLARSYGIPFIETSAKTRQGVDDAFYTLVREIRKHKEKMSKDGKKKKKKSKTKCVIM
Chain of GDP-loaded KRAS-G12V (P01116-2 other isoform, or with tags, fused parts or gaps G12V): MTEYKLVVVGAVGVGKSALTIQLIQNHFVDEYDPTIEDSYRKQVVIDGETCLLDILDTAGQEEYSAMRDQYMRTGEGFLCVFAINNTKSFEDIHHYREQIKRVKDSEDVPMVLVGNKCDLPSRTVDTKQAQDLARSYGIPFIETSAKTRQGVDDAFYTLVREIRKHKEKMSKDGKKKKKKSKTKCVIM
Chain of GDP-loaded wild-type KRAS (WT) (P01116-2 other isoform, or with tags, fused parts or gaps): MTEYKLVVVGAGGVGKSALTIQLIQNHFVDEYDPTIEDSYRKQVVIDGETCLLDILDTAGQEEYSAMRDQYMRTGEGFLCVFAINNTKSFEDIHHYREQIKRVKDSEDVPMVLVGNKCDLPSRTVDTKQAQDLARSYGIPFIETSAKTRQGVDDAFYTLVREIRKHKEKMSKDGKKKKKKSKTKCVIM

| SMILES | IC50 [1] [nM] | IC50 (GDP-loaded KRAS-G12C) [nM] | IC50 (GDP-loaded KRAS-G12V) [nM] | IC50 (GDP-loaded KRAS-G12D) [nM] | EC50 [2] [nM] | EC50 ([3]; Homo sapiens) [nM] | EC50 ([4]; Homo sapiens) [nM] | EC50 ([5]; Homo sapiens, ASPC1) [nM] | EC50 [3] [nM] | EC50 [4] [nM] | EC50 ([5]; read-out: AsPC1 pERK EC50) [nM] |
| --- | --- | --- | --- | --- | --- | --- | --- | --- | --- | --- | --- |
| C#Cc1c(F)ccc2cc(O)cc(-c3nc4c5c(nc(OC[C@@]67CCCN6C[C@H](F)C7)nc5c3F)N3CCOCCC3CC4)c12 (mixture of isomers) [Example 6-13] | 0.06 | 0.06 | 0.1 | 0.15 | 1.59 | 0.23 | 2.14 | 11.7 |  |  |  |
| C#Cc1c(F)ccc2cc(O)cc(-c3c(F)c4c5c(nc(OC[C@@]67CCCN6C[C@H](F)C7)nc5c3F)N3CCCOC[C@@H]3CC4)c12 (mixture of isomers) [Example 6-21] | 0.88 | 0.54 | 0.4 | 0.87 | 5.94 | 1.08 | 1.78 | 3.12 |  |  |  |
| C#Cc1c(F)ccc2cc(O)cc(-c3nc4c5c(nc(OC[C@@]67CCCN6C[C@H](F)C7)nc5c3F)N3CCCCC3CCn3nncc3-4)c12 (mixture of isomers) [Example 11-1, 5-ethynyl-6-fluoro-4-(1-fluoro-14-(((2R,7aS)-2-fluorotetrahydro-1H-pyrrolizin-7a(5H)-yl)methoxy)-8,8a,9,10,11,12-hexahydro-7H-3,5,6,6a,12a,13,15-heptaazabenzo[4,5]cyclopenta[8,9]cyclonona[1,2,3-de]naphthalen-2-yl)naphthalen-2-ol] | > 1000 | > 1000 | > 1000 | > 1000 | > 1000 |  |  |  | > 1000 | > 1000 | > 1000 |
| C#Cc1c(F)ccc2cccc(-c3nc4c5c(nc(OCC6(CN7CCCCC7)CC6)nc5c3F)N3CCCOC[C@@H]3CC4)c12 [Example 15-2] |  | 13.4 | 17.1 | 22.2 | 85.9 | 115 | 272 | 216 |  |  |  |
| C#Cc1c(F)ccc2cccc(-c3nc4c5c(nc(OC[C@@]67CCCN6[C@H](COC(=O)N(CC)CC)CC7)nc5c3F)N3CCCOC[C@@H]3CC4)c12 [Example 16-1, ((3S,7aS)-7a-((((S)-2-(8-ethynyl-7-fluoronaphthalen-1-yl)-1-fluoro-4,5,5a,6,9,10-hexahydro-8H-7-oxa-3,10a,11,13-tetraazanaphtho[1,8-ab]heptalen-12-yl)oxy)methyl)hexahydro-1H-pyrrolizin-3-yl)methyl diethylcarbamate] |  | 33.1 | 30.9 | 42.3 | 242 | 231 | 543 | 647 |  |  |  |
| C#Cc1c(F)ccc2cccc(-c3nc4c5c(nc(OC[C@@]67CCCN6[C@H](COC(=O)NCC)CC7)nc5c3F)N3CCCOC[C@@H]3CC4)c12 [Example 16-3] |  |  |  |  | 5.23 | 2.76 | 12.7 | 14 |  |  |  |
| Oc1cc(-c2nc3c4c(nc(OC[C@@]56CCCN5C[C@H](F)C6)nc4c2F)N2CCCOC[C@@H]2CC3)c2c(Cl)cccc2c1 [Example 19-1, 5-chloro-4-((S)-1-fluoro-12-(((2R,7aS)-2-fluorotetrahydro-1H-pyrrolizin-7a(5H)-yl)methoxy)-4,5,5a,6,9,10-hexahydro-8H-7-oxa-3,10a,11,13-tetraazanaphtho[1,8-ab]heptalen-2-yl)naphthalen-2-ol] |  |  |  |  | 582 | > 1000 | > 1000 | > 1000 |  |  |  |
| C#Cc1c(F)ccc2cc(O)cc(-c3nc4c5c(nc(OC[C@@]67CCCN6C[C@H](F)C7)nc5c3F)N3CCCCC[C@@H]3CC4)c12 [Example 20-1, 5-ethynyl-6-fluoro-4-((R)-1-fluoro-12-(((2R,7aS)-2-fluorotetrahydro-1H-pyrrolizin-7a(5H)-yl)methoxy)-4,5,5a,6,7,8,9,10-octahydro-3,10a,11,13-tetraazanaphtho[1,8-ab]heptalen-2-yl)naphthalen-2-ol] |  |  |  |  | 6.34 | 8.73 | 42.3 | 42.5 |  |  |  |
| C#Cc1c(F)ccc2cc(O)cc(-c3nc4c5c(nc(OC[C@@]67CCCN6C[C@@H](F)C7)nc5c3F)N3CCCOC[C@@H]3CC4)c12 [Example 22-1, 5-ethynyl-6-fluoro-4-((S)-1-fluoro-12-(((2S,7aS)-2-fluorotetrahydro-1H-pyrrolizin-7a(5H)-yl)methoxy)-4,5,5a,6,9,10-hexahydro-8H-7-oxa-3,10a,11,13-tetraazanaphtho[1,8-ab]heptalen-2-yl)naphthalen-2-ol] |  |  |  |  | 8.15 | 102 | 54.8 | 92.1 |  |  |  |
| C#Cc1c(F)ccc2cc(O)cc(-c3nc4c5c(nc(OC[C@@]67CCCN6CC(=C)C7)nc5c3F)N3CCCOCC3CC4)c12 (stereo partly shown) [Example 22-2] |  |  |  |  | 1.63 | 0.18 | 1.06 | 1.49 |  |  |  |
| C#Cc1c(F)ccc2cc(O)cc(-c3nc4c5c(nc(OC[C@@]67CCCN6C[C@@]6(CC6(F)F)C7)nc5c3F)N3CCCOC[C@@H]3CC4)c12 [Example 22-3] |  |  |  |  | 2.55 | 0.47 | 1.17 | 3.75 |  |  |  |
| C#Cc1c(F)ccc2cc(O)cc(-c3nc4c5c(nc(OC[C@@]67CCCN6C[C@H](F)C7)nc5c3F)N3CCCOCC3C[C@@H]4O)c12 (stereo partly shown) [Example 22-5] |  |  |  |  | 79.7 | 70 | 212 | 128 |  |  |  |
| C#Cc1c(F)ccc2cc(O)cc(-c3nc4c5c(nc(OC[C@@]67CCCN6C[C@H](F)C7)nc5c3F)N3CCCOCC3C[C@H]4F)c12 (stereo partly shown) [Example 22-6] |  |  |  |  | 28.8 | 17.4 | 58.7 | 97.1 |  |  |  |
| C#Cc1c(F)c(F)cc2cc(N)cc(-c3nc4c5c(nc(OC[C@@]67CCCN6C[C@H](F)C7)nc5c3F)N3CCCOC[C@@H]3CC4)c12 [Example 23-1, 5-ethynyl-6,7-difluoro-4-((S)-1-fluoro-12-(((2R,7aS)-2-fluorotetrahydro-1H-pyrrolizin-7a(5H)-yl)methoxy)-4,5,5a,6,9,10-hexahydro-8H-7-oxa-3,10a,11,13-tetraazanaphtho[1,8-ab]heptalen-2-yl)naphthalen-2-amine] |  |  |  |  | 0.95 | 8.03 | 3.13 | 14.4 |  |  |  |
| C#Cc1c(F)c(F)cc2cc(N)cc(-c3nc4c5c(nc(OC[C@@]67CCCN6C/C(=C\F)C7)nc5c3F)N3CCCOC[C@@H]3CC4)c12 [Example 23-2] |  |  |  |  | 1.37 | 0.87 | 1.67 | 5.33 |  |  |  |
| C#Cc1c(F)c(F)cc2cc(N)cc(-c3nc4c5c(nc(OCC67CCCN6CCC7)nc5c3F)N3CCCOC[C@@H]3CC4)c12 [Example 23-3] |  |  |  |  | 7.54 | 20.3 | 75.9 | 105 |  |  |  |
